Assay results published in ChEMBL document CHEMBL2401728, “An unexpected Dimroth rearrangement leading to annelated thieno[3,2-d][1,2,3]triazolo[1,5-a]pyrimidines with potent antitumor activity” (Eur J Med Chem, 2013).

How the values were obtained:
Assay type in all cases: functional
[1] = test system: MDA-MB-468; assay: Cytotoxicity against human MDA-MB-468 cells assessed as cellular growth at 10 uM after 48 hrs by SRB assay relative to control
[2] = test system: BT-549; assay: Cytotoxicity against human BT549 cells assessed as cellular growth at 10 uM after 48 hrs by SRB assay relative to control
[3] = test system: T47D; assay: Cytotoxicity against human T47D cells assessed as cellular growth at 10 uM after 48 hrs by SRB assay relative to control
[4] = test system: MDA-MB-231; assay: Cytotoxicity against human MDA-MB-231 cells assessed as cellular growth at 10 uM after 48 hrs by SRB assay relative to control
[5] = test system: MCF7; assay: Cytotoxicity against human MCF7 cells assessed as cellular growth at 10 uM after 48 hrs by SRB assay relative to control
[6] = test system: DU-145; assay: Cytotoxicity against human DU145 cells assessed as cellular growth at 10 uM after 48 hrs by SRB assay relative to control
[7] = test system: UO-31; assay: Cytotoxicity against human UO31 cells assessed as cellular growth at 10 uM after 48 hrs by SRB assay relative to control
[8] = test system: PC-3; assay: Cytotoxicity against human PC3 cells assessed as cellular growth at 10 uM after 48 hrs by SRB assay relative to control
[9] = test system: TK-10; assay: Cytotoxicity against human TK10 cells assessed as cellular growth at 10 uM after 48 hrs by SRB assay relative to control
[10] = test system: SN12C; assay: Cytotoxicity against human SN12C cells assessed as cellular growth at 10 uM after 48 hrs by SRB assay relative to control
[11] = test system: RXF 393; assay: Cytotoxicity against human RXF393 cells assessed as cellular growth at 10 uM after 48 hrs by SRB assay relative to control
[12] = test system: CAKI-1; assay: Cytotoxicity against human Caki1 cells assessed as cellular growth at 10 uM after 48 hrs by SRB assay relative to control
[13] = test system: ACHN; assay: Cytotoxicity against human ACHN cells assessed as cellular growth at 10 uM after 48 hrs by SRB assay relative to control
[14] = test system: OVCAR-8; assay: Cytotoxicity against human OVCAR8 cells assessed as cellular growth at 10 uM after 48 hrs by SRB assay relative to control
[15] = Cytotoxicity against human NCI-ADR-RES cells assessed as cellular growth at 10 uM after 48 hrs by SRB assay relative to control
[16] = test system: OVCAR-5; assay: Cytotoxicity against human OVCAR5 cells assessed as cellular growth at 10 uM after 48 hrs by SRB assay relative to control
[17] = test system: OVCAR-4; assay: Cytotoxicity against human OVCAR4 cells assessed as cellular growth at 10 uM after 48 hrs by SRB assay relative to control
[18] = test system: OVCAR-3; assay: Cytotoxicity against human OVCAR3 cells assessed as cellular growth at 10 uM after 48 hrs by SRB assay relative to control
[19] = test system: UACC-62; assay: Cytotoxicity against human UACC62 cells assessed as cellular growth at 10 uM after 48 hrs by SRB assay relative to control
[20] = test system: UACC-257; assay: Cytotoxicity against human UACC257 cells assessed as cellular growth at 10 uM after 48 hrs by SRB assay relative to control
[21] = test system: SK-MEL-5; assay: Cytotoxicity against human SK-MEL-5 cells assessed as cellular growth at 10 uM after 48 hrs by SRB assay relative to control
[22] = test system: SK-MEL-2; assay: Cytotoxicity against human SK-MEL-2 cells assessed as cellular growth at 10 uM after 48 hrs by SRB assay relative to control
[23] = test system: U-251; assay: Cytotoxicity against human U251 cells assessed as cellular growth at 10 uM after 48 hrs by SRB assay relative to control
[24] = test system: SNB-19; assay: Cytotoxicity against human SNB19 cells assessed as cellular growth at 10 uM after 48 hrs by SRB assay relative to control
[25] = test system: SF-539; assay: Cytotoxicity against human SF539 cells assessed as cellular growth at 10 uM after 48 hrs by SRB assay relative to control
[26] = test system: SF-268; assay: Cytotoxicity against human SF268 cells assessed as cellular growth at 10 uM after 48 hrs by SRB assay relative to control
[27] = test system: SF-295; assay: Cytotoxicity against human SF295 cells assessed as cellular growth at 10 uM after 48 hrs by SRB assay relative to control
[28] = test system: KM12; assay: Cytotoxicity against human KM12 cells assessed as cellular growth at 10 uM after 48 hrs by SRB assay relative to control
[29] = test system: HT-29; assay: Cytotoxicity against human HT-29 cells assessed as cellular growth at 10 uM after 48 hrs by SRB assay relative to control
[30] = test system: HCT-15; assay: Cytotoxicity against human HCT15 cells assessed as cellular growth at 10 uM after 48 hrs by SRB assay relative to control
[31] = test system: HCC 2998; assay: Cytotoxicity against human HCC2998 cells assessed as cellular growth at 10 uM after 48 hrs by SRB assay relative to control
[32] = test system: COLO 205; assay: Cytotoxicity against human COLO205 cells assessed as cellular growth at 10 uM after 48 hrs by SRB assay relative to control
[33] = test system: NCI-H522; assay: Cytotoxicity against human NCI-H522 cells assessed as cellular growth at 10 uM after 48 hrs by SRB assay relative to control
[34] = test system: NCI-H322M; assay: Cytotoxicity against human NCI-H322M cells assessed as cellular growth at 10 uM after 48 hrs by SRB assay relative to control
[35] = test system: NCI-H460; assay: Cytotoxicity against human NCI-H460 cells assessed as cellular growth at 10 uM after 48 hrs by SRB assay relative to control
[36] = test system: NCI-H23; assay: Cytotoxicity against human NCI-H23 cells assessed as cellular growth at 10 uM after 48 hrs by SRB assay relative to control
[37] = test system: NCI-H226; assay: Cytotoxicity against human NCI-H226 cells assessed as cellular growth at 10 uM after 48 hrs by SRB assay relative to control
[38] = test system: HOP-92; assay: Cytotoxicity against human HOP92 cells assessed as cellular growth at 10 uM after 48 hrs by SRB assay relative to control
[39] = test system: A549; assay: Cytotoxicity against human A549 cells assessed as cellular growth at 10 uM after 48 hrs by SRB assay relative to control
[40] = test system: RPMI-8226; assay: Cytotoxicity against human RPMI8226 cells assessed as cellular growth at 10 uM after 48 hrs by SRB assay relative to control
[41] = test system: MOLT-4; assay: Cytotoxicity against human MOLT4 cells assessed as cellular growth at 10 uM after 48 hrs by SRB assay relative to control
[42] = test system: K562; assay: Cytotoxicity against human K562 cells assessed as cellular growth at 10 uM after 48 hrs by SRB assay relative to control
[43] = test system: CCRF-CEM; assay: Cytotoxicity against human CCRF-CEM cells assessed as cellular growth at 10 uM after 48 hrs by SRB assay relative to control

CN1CCN(CCCn2c3c(sc4ncccc43)c(=O)n3nnc(-c4ccccc4)c23)CC1
Activity [1]: -94%
Activity [2]: 76%
Activity [3]: 103%
Activity [4]: -83.53%
Activity [5]: -91%
Activity [6]: -74%
Activity [7]: -90.79%
Activity [8]: -3.82%
Activity [9]: -88%
Activity [10]: -55%
Activity [11]: -93%
Activity [12]: -79%
Activity [13]: -77%
Activity [14]: -48.18%
Activity [15]: -29%
Activity [16]: -15%
Activity [17]: -65%
Activity [18]: -83.15%
Activity [19]: 85%
Activity [20]: -87%
Activity [21]: -98%
Activity [22]: 99.31%
Activity [23]: -84%
Activity [24]: -63%
Activity [25]: -95.99%
Activity [26]: -77%
Activity [27]: -79%
Activity [28]: -79%
Activity [29]: -46.19%
Activity [30]: -63%
Activity [31]: -87%
Activity [32]: -82%
Activity [33]: -76%
Activity [34]: -76%
Activity [35]: -70.68%
Activity [36]: -39%
Activity [37]: 71%
Activity [38]: 42%
Activity [39]: -74.7%
Activity [40]: -48%
Activity [41]: -50%
Activity [42]: -41%
Activity [43]: -45%

O=C(CCCn1c2c(sc3ccccc32)c(=O)n2nnc(-c3ccccc3)c12)NCCc1c[nH]cn1
Activity [1]: -93%
Activity [2]: 4%
Activity [3]: -25.44%
Activity [4]: -64%
Activity [5]: -100%
Activity [6]: -100%
Activity [7]: -97%
Activity [8]: -84.51%
Activity [9]: -91%
Activity [10]: -80%
Activity [11]: -70%
Activity [12]: -83.98%
Activity [13]: -84%
Activity [14]: -50.58%
Activity [15]: 8%
Activity [16]: -91%
Activity [17]: -92.51%
Activity [18]: -96%
Activity [19]: -76%
Activity [20]: -69%
Activity [21]: -67.14%
Activity [22]: -90.32%
Activity [23]: -100%
Activity [24]: 27.29%
Activity [25]: -97.26%
Activity [26]: -77%
Activity [27]: -83%
Activity [28]: -90%
Activity [29]: -100%
Activity [30]: -75%
Activity [31]: 25.66%
Activity [32]: -77%
Activity [33]: -95.79%
Activity [34]: -34.11%
Activity [35]: -93.2%
Activity [36]: -54%
Activity [37]: -14%
Activity [38]: -75.7%
Activity [39]: -75.35%
Activity [40]: -4.25%
Activity [41]: 79.44%
Activity [42]: -70%
Activity [43]: -58%

O=C(O)CCCn1c2c(sc3ccccc32)c(=O)n2nnc(-c3ccccc3)c12
Activity [1]: 85.92%
Activity [2]: 54.36%
Activity [3]: 78.01%
Activity [4]: 92.52%
Activity [5]: 84.04%
Activity [6]: 94.87%
Activity [7]: 69.07%
Activity [8]: 89.28%
Activity [9]: 98.3%
Activity [10]: 88.81%
Activity [11]: 51.92%
Activity [12]: 60.48%
Activity [13]: 79.06%
Activity [14]: 77.77%
Activity [15]: 107.52%
Activity [16]: 154.53%
Activity [17]: 93.19%
Activity [18]: 103.59%
Activity [19]: 75.64%
Activity [20]: 111.46%
Activity [21]: 79.01%
Activity [22]: 107.41%
Activity [23]: 94.66%
Activity [24]: 76.27%
Activity [25]: 91.17%
Activity [26]: 91.25%
Activity [27]: 92.89%
Activity [28]: 86.08%
Activity [29]: 92.57%
Activity [30]: 66.61%
Activity [31]: 96.03%
Activity [32]: 110.27%
Activity [33]: 34.84%
Activity [34]: 86.21%
Activity [35]: 74.3%
Activity [36]: 118.45%
Activity [37]: 82.97%
Activity [38]: 107.65%
Activity [39]: 89.47%
Activity [40]: 93.76%
Activity [41]: 96.85%
Activity [42]: 96.49%
Activity [43]: 92.35%
